In article PMC10797637 (Journal of natural products, 2023):

Test system: P. falciparum Dd2
Test: Plasmodium falciparum SYBR Green I assay
Type: cell-based
Conditions: relative to HepG2 cytotoxicity

| SMILES | P. falciparum SI |
| --- | --- |
| COC(=O)[C@]12Oc3cc4c(c(O)c3C(=O)C1=C(O)CC[C@@H]2O)[C@@H]1C=C[C@@]2(C4)C(=O)c3cc(C)cc(O)c3C(O)=C2C1=O [compound 8, xanthoquinodin A2] | >50 |

Test system: HepG2 human hepatocytes
Test: Human cell cytotoxicity assay
Type: cell-based
Conditions: HepG2, read-out: HepG2 EC50

| SMILES | EC50 |
| --- | --- |
| COC(=O)[C@@]12Oc3cc4c(c(O)c3C(=O)C1=C(O)CC[C@@H]2O)[C@@H]1C=C[C@@]2(C4)C(=O)c3cc(C)cc(O)c3C(=O)[C@]2(O)C1=O [compound 1, xanthoquinodin NPDG A1] | > 25 µM |
| COC(=O)[C@]1([C@@H](O)CCC(=O)O)CC(=O)c2c(cc3c(c2O)[C@@H]2C=C[C@@]4(C3)C(=O)c3cc(C)cc(O)c3C(O)=C4C2=O)O1 [compound 3, xanthoquinodin NPDG A3] | > 25 µM |
| COC(=O)[C@]1([C@@H](O)CCC(=O)O)CC(=O)c2c(cc3c(c2O)[C@@H]2C=C[C@@]4(C3)C(=O)c3cc(C)cc(O)c3C(=O)[C@]4(O)C2=O)O1 [compound 4, Xanthoquinodin NPDG A4] | > 25 µM |
| COC(=O)[C@]1([C@@H]2CCC(=O)O2)CC(=O)c2c(cc3c(c2O)[C@@H]2C=C[C@@]4(C3)C(=O)c3cc(C)cc(O)c3C(=O)[C@]4(O)C2=O)O1 [compound 5, Xanthoquinodin NPDG A5] | > 25 µM |
| COC(=O)[C@]12Oc3c(c(O)cc4c3[C@@H]3C=C[C@@]5(C4)C(=O)c4cc(C)cc(O)c4C(=O)[C@]5(O)C3=O)C(=O)C1=C(O)CC[C@@H]2O [compound 6, xanthoquinodin NPDG B1] | > 25 µM |
| COC(=O)[C@@]12Oc3cc4c(c(O)c3C(=O)C1=C(O)CC[C@@H]2O)[C@@H]1C=C[C@@]2(C4)C(=O)c3cc(C)cc(O)c3C(O)=C2C1=O [compound 7, xanthoquinodin A1] | > 25 µM |
| COC(=O)[C@]12Oc3cc4c(c(O)c3C(=O)C1=C(O)CC[C@@H]2O)[C@@H]1C=C[C@@]2(C4)C(=O)c3cc(C)cc(O)c3C(O)=C2C1=O [compound 8, xanthoquinodin A2] | > 25 µM |
| COC(=O)[C@]1([C@@H]2CCC(=O)O2)CC(=O)c2c(cc3c(c2O)[C@@H]2C=C[C@@]4(C3)C(=O)c3cc(C)cc(O)c3C(O)=C4C2=O)O1 [compound 9, xanthoquinodin A3] | > 25 µM |
| COC(=O)[C@]1([C@@H]2CCC(=O)O2)CC(=O)c2c(O)cc(C)cc2O1 [compound 12, gonytolide C] | > 25 µM |
